Results reported in ChEMBL document CHEMBL3991601, “The target landscape of clinical kinase drugs” (Science, 2017).
Calls of active or inactive are those of the source. Rule as the data show it, for most assays here: actives have a measured Kd and inactives only a lower limit.

Assays:
[1] = molecular target: Ribosomal protein S6 kinase alpha-3 (Homo sapiens, UniProt P51812)
[2] = molecular target: Serine/threonine-protein kinase 10 (Homo sapiens, UniProt O94804)
Ephrin type-A receptor 4 = Ephrin type-A receptor 4 (Homo sapiens, UniProt P54764)
[3] = molecular target: Mitogen-activated protein kinase 10 (Homo sapiens, UniProt P53779)
Mitogen-activated protein kinase 10, sequence (P53779 whole entry): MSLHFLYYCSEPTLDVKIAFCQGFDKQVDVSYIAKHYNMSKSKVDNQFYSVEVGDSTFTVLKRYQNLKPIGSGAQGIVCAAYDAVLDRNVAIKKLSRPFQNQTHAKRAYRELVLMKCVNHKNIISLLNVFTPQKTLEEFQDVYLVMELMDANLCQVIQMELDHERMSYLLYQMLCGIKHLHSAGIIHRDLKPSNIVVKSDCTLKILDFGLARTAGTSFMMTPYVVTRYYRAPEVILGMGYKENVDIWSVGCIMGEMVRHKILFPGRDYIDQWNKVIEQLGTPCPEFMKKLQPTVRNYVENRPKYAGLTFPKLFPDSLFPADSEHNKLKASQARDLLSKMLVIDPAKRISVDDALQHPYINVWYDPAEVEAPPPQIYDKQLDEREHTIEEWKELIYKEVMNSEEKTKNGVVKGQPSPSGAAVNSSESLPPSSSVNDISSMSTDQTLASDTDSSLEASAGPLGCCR

[4] = molecular target: Dual specificity mitogen-activated protein kinase kinase 2 (Homo sapiens, UniProt P36507)
Dual specificity mitogen-activated protein kinase kinase 2, sequence (P36507 whole entry): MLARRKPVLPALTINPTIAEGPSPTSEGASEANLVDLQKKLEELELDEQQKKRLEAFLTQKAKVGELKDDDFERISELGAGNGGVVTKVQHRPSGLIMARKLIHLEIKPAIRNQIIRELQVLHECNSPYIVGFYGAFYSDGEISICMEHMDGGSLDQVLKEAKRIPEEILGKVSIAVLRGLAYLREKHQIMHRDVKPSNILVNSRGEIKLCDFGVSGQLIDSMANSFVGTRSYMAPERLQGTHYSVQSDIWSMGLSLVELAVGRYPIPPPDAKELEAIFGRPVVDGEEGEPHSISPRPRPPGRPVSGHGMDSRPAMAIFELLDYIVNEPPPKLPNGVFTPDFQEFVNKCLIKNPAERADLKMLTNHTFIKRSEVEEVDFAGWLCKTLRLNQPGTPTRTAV

[5] = molecular target: Epidermal growth factor receptor (Homo sapiens, UniProt P00533)
[6] = molecular target: NADH dehydrogenase [ubiquinone] 1 alpha subcomplex subunit 13 (Homo sapiens, UniProt Q9P0J0)
NADH dehydrogenase [ubiquinone] 1 alpha subcomplex subunit 13, sequence (Q9P0J0 whole entry, one chain of several): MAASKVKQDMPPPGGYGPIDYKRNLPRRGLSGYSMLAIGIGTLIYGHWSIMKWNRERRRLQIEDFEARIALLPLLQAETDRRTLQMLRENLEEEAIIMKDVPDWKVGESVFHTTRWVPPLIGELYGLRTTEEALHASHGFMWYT

[7] = molecular target: Chromodomain-helicase-DNA-binding protein 4 (Homo sapiens, UniProt Q14839)
DNA topoisomerase 2-beta = DNA topoisomerase 2-beta (Homo sapiens, UniProt Q02880)
DNA topoisomerase 2-beta, sequence (Q02880 whole entry): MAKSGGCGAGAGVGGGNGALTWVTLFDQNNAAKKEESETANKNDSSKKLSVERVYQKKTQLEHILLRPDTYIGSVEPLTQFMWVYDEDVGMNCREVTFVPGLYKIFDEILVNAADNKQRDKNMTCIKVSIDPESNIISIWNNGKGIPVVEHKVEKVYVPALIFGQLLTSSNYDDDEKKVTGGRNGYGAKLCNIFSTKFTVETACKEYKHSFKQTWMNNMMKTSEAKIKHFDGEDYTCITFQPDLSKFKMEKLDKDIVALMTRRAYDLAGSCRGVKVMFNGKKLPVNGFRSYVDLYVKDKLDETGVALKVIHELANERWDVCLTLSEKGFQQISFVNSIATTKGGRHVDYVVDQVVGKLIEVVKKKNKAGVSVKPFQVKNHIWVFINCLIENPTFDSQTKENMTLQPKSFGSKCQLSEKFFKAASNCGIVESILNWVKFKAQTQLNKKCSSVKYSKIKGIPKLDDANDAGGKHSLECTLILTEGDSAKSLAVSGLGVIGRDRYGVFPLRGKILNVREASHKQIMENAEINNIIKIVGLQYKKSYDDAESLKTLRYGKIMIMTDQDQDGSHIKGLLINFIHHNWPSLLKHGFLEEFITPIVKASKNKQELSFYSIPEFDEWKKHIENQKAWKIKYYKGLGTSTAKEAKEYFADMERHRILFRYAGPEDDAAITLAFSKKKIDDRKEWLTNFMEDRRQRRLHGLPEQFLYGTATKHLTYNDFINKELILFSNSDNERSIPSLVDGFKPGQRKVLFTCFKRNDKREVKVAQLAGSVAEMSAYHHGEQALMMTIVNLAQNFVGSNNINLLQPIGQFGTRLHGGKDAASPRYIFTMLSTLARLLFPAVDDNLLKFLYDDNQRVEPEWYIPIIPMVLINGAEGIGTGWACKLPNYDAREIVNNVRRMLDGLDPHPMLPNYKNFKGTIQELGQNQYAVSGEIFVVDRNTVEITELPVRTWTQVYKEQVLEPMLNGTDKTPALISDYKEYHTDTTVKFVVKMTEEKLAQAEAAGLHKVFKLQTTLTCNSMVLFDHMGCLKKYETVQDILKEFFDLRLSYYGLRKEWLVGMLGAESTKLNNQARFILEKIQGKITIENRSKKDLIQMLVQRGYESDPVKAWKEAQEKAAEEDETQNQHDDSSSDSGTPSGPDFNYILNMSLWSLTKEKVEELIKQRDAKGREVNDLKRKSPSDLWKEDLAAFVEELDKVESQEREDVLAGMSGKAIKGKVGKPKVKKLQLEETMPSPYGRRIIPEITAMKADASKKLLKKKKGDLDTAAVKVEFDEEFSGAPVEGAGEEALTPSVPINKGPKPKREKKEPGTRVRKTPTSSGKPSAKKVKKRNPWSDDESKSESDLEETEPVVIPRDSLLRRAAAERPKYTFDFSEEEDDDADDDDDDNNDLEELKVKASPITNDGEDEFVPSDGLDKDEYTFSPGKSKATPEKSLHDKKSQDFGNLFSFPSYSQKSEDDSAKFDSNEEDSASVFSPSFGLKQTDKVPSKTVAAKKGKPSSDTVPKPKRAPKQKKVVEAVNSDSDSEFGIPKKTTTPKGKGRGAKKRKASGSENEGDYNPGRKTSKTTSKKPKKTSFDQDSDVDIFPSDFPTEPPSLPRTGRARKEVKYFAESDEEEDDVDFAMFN

[8] = molecular target: Serine/threonine-protein kinase/endoribonuclease IRE1 (Homo sapiens, UniProt O75460)
Serine/threonine-protein kinase/endoribonuclease IRE1, sequence (O75460 whole entry): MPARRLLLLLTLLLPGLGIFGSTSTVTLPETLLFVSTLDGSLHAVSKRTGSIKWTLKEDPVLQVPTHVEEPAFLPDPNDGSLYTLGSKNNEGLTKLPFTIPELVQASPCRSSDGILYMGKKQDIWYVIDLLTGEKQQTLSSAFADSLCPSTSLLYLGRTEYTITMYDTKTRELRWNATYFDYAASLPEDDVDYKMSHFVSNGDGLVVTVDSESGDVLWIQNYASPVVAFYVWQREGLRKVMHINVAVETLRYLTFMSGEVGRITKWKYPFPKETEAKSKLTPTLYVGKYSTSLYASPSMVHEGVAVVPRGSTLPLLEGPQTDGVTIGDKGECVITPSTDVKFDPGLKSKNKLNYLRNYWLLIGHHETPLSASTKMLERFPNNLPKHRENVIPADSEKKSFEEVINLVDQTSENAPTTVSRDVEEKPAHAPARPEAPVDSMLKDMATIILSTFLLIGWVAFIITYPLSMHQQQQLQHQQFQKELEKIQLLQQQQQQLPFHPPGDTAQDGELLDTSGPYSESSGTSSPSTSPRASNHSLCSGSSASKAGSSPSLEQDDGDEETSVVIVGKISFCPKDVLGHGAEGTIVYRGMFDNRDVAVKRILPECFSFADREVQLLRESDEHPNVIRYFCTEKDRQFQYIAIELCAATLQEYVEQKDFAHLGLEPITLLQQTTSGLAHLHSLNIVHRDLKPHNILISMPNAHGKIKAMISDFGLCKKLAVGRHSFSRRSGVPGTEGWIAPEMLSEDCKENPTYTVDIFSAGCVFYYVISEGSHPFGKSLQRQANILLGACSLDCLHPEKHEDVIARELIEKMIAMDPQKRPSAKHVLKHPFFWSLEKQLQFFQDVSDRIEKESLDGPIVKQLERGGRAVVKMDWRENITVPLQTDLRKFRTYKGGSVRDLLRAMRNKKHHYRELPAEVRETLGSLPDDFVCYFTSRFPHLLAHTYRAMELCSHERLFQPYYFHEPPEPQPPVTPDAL

[9] = molecular target: Ribosomal protein S6 kinase alpha-5 (Homo sapiens, UniProt O75582)
[10] = molecular target: Cyclin-dependent kinase 17 (Homo sapiens, UniProt Q00537)
Cyclin-dependent kinase 17, sequence (Q00537 whole entry): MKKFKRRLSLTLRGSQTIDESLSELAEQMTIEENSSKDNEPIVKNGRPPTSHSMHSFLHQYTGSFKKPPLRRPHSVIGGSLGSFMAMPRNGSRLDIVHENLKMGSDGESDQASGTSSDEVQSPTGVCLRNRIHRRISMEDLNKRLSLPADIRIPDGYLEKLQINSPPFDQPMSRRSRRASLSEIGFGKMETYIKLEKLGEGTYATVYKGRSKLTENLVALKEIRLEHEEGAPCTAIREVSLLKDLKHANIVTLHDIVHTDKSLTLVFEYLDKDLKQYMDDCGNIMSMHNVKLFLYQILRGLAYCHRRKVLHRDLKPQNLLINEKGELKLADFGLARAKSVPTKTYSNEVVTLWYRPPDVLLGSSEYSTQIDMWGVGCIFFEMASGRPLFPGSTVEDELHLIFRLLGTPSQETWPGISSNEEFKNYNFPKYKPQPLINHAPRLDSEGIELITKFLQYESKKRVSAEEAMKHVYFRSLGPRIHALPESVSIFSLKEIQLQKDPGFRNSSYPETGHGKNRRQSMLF

Septin-9 = molecular target: T1, Septin-9 (Homo sapiens, UniProt Q9UHD8)
T1 sequence (Q9UHD8 whole entry): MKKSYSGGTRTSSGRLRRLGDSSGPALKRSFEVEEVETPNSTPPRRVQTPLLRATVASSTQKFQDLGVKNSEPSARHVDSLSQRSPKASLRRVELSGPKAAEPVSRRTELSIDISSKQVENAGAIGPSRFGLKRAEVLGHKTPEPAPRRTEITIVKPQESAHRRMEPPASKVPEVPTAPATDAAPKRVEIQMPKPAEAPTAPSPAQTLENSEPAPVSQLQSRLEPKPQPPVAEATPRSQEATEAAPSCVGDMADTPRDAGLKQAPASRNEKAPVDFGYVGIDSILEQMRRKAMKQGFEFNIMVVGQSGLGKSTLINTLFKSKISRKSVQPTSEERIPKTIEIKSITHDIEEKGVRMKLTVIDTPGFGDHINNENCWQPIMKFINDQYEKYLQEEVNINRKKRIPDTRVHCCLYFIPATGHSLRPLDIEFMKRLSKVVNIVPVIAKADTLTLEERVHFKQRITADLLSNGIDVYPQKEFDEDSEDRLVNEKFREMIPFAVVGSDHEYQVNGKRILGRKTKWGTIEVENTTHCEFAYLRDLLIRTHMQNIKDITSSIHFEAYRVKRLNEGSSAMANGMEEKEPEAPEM

[11] = molecular target: T2, ATP-dependent RNA helicase DHX30 (Homo sapiens, UniProt Q7L2E3)
T2 sequence (Q7L2E3 whole entry): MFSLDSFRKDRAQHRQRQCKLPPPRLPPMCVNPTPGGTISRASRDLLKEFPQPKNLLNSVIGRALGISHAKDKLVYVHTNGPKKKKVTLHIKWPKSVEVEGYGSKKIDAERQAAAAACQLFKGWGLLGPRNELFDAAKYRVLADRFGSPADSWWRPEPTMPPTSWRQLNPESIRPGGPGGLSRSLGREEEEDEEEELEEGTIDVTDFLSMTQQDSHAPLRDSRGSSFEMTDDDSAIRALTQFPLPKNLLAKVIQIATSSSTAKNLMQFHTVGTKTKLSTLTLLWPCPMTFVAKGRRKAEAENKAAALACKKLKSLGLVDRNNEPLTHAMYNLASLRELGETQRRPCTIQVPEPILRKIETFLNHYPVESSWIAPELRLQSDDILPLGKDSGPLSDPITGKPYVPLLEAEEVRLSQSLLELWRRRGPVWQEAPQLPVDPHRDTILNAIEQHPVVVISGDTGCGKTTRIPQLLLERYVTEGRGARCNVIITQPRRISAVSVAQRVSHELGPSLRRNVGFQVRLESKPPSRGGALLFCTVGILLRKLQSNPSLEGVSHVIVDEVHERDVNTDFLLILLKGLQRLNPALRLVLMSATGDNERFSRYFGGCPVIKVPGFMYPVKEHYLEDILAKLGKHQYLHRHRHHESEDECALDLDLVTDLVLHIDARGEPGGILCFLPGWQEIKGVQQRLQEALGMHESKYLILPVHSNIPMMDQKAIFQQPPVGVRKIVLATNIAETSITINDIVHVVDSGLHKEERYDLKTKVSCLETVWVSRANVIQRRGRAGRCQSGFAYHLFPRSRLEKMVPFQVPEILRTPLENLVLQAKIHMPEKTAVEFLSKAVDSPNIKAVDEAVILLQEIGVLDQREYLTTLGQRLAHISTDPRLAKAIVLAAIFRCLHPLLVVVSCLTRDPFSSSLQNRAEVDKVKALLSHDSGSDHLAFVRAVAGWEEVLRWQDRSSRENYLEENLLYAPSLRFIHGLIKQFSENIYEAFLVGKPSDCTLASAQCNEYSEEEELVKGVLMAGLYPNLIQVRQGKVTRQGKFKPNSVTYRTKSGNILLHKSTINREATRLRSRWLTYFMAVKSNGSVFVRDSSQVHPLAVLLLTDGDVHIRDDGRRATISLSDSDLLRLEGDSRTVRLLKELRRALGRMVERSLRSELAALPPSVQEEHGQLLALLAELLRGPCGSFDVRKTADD
Also: in the data inactive means no Kd found up to 30 µM.

Ribosomal protein S6 kinase alpha-3, sequence (P51812 whole entry): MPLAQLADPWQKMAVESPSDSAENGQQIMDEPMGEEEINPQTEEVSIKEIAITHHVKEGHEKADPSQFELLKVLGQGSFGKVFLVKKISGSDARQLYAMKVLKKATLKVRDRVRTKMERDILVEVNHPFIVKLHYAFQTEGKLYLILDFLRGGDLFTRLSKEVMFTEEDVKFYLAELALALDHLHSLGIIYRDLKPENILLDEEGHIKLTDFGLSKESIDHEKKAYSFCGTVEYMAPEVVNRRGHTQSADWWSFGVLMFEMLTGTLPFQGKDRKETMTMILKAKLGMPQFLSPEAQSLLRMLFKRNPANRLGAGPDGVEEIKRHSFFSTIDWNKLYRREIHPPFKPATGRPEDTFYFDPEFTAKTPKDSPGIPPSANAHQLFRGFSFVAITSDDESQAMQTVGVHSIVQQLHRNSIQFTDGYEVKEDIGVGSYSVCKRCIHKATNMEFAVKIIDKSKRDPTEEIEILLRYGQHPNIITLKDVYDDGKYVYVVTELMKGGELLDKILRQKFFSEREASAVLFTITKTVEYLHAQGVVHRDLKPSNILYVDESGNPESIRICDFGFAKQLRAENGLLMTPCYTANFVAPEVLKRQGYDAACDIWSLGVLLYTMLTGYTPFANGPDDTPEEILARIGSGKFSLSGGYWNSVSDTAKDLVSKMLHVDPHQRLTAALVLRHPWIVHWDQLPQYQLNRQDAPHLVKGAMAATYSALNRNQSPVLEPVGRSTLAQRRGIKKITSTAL

| Structure (SMILES) | Kd [1] | Kd [2] | Kd (Ephrin type-A receptor 4) | Kd [3] | Kd [4] | Kd [5] | Kd [6] | Kd [7] | Kd (DNA topoisomerase 2-beta) | Kd [8] | Kd [9] | Kd [10] | Kd (Septin-9) | Kd [11] |
| --- | --- | --- | --- | --- | --- | --- | --- | --- | --- | --- | --- | --- | --- | --- |
| C[C@@H](Oc1cc(C(=O)Nc2ccc(C(=O)N3CCN(C)CC3)cc2)nnc1N)c1c(Cl)ccc(F)c1Cl | > 30 µM (inactive) | > 30 µM (inactive) | > 30 µM (inactive) | > 30 µM (inactive) | > 30 µM (inactive) | > 30 µM (inactive) | > 30 µM (inactive) | > 30 µM (inactive) | > 30 µM (inactive) | > 30 µM (inactive) | > 30 µM (inactive) |  |  |  |
| C[C@H]1CNCCCN1S(=O)(=O)c1cccc2cncc(F)c12 | > 30 µM (inactive) | > 30 µM (inactive) | > 30 µM (inactive) | > 30 µM (inactive) | > 30 µM (inactive) | > 30 µM (inactive) | > 30 µM (inactive) | > 30 µM (inactive) | > 30 µM (inactive) | > 30 µM (inactive) | > 30 µM (inactive) | > 30 µM (inactive) | > 30 µM (inactive) |  |
| CCNC(=O)C#Cc1ccc2c(c1)NC(=O)/C2=C(\Nc1ccc(CN(C)C)cc1)c1ccccc1 | 0.734 µM (active) | 0.136 µM (active) | > 30 µM (inactive) | > 30 µM (inactive) |  | > 30 µM (inactive) | > 30 µM (inactive) | > 30 µM (inactive) | > 30 µM (inactive) | > 30 µM (inactive) | > 30 µM (inactive) | > 30 µM (inactive) | > 30 µM (inactive) |  |
| Cc1nc(NC(=O)N2CCC[C@H]2C(N)=O)sc1-c1ccnc(C(C)(C)C(F)(F)F)c1 [ALPELISIB] | > 30 µM (inactive) | > 30 µM (inactive) | > 30 µM (inactive) | > 30 µM (inactive) | > 30 µM (inactive) | > 30 µM (inactive) |  | > 30 µM (inactive) | > 30 µM (inactive) | > 30 µM (inactive) | > 30 µM (inactive) |  | > 30 µM (inactive) |  |
| COc1cc([C@@H]2c3cc4c(cc3[C@H](O)[C@H]3COC(=O)[C@@H]23)OCO4)cc(OC)c1OC [AXL-1717] | > 30 µM (inactive) | > 30 µM (inactive) | > 30 µM (inactive) | > 30 µM (inactive) | > 30 µM (inactive) | > 30 µM (inactive) | > 30 µM (inactive) | > 30 µM (inactive) | > 30 µM (inactive) | > 30 µM (inactive) | > 30 µM (inactive) | > 30 µM (inactive) | > 30 µM (inactive) |  |
| NC(=O)Nc1cc(-c2cccc(F)c2)sc1C(=O)N[C@H]1CCCNC1 [AZD-7762] | > 30 µM (inactive) | 0.36 µM (active) | > 30 µM (inactive) | > 30 µM (inactive) | 1.22 µM (active) |  | > 30 µM (inactive) | > 30 µM (inactive) | > 30 µM (inactive) |  | > 30 µM (inactive) | > 30 µM (inactive) | > 30 µM (inactive) | > 30 µM (inactive) |
| Cc1cc(Nc2ncc(Cl)c(Nc3ccccc3S(=O)(=O)C(C)C)n2)c(OC(C)C)cc1C1CCNCC1 [CERITINIB] | > 30 µM (inactive) | > 30 µM (inactive) | > 30 µM (inactive) | > 30 µM (inactive) | > 30 µM (inactive) |  | > 30 µM (inactive) | > 30 µM (inactive) | > 30 µM (inactive) | > 30 µM (inactive) | > 30 µM (inactive) | > 30 µM (inactive) | > 30 µM (inactive) | > 30 µM (inactive) |
| CCOc1cc2ncc(C#N)c(Nc3ccc(F)c(Cl)c3)c2cc1NC(=O)/C=C/CN(C)C [PELITINIB] | > 30 µM (inactive) |  | > 30 µM (inactive) | > 30 µM (inactive) |  |  | > 30 µM (inactive) | > 30 µM (inactive) | > 30 µM (inactive) | > 30 µM (inactive) | > 30 µM (inactive) | > 30 µM (inactive) | > 30 µM (inactive) | > 30 µM (inactive) |
| CNC(=O)c1cc(Oc2ccc(NC(=O)Nc3cc(C(C)(C)C)nn3-c3ccc4ncccc4c3)c(F)c2)ccn1 [REBASTINIB] | > 30 µM (inactive) |  | > 30 µM (inactive) | 0.072 µM | > 30 µM (inactive) |  | > 30 µM (inactive) | > 30 µM (inactive) | > 30 µM (inactive) |  |  | 0.007 µM (active) | > 30 µM (inactive) | > 30 µM (inactive) |
| CN1CCN(CCOc2cc(OC3CCOCC3)c3c(Nc4c(Cl)ccc5c4OCO5)ncnc3c2)CC1 [SARACATINIB] | > 30 µM (inactive) | 11.7 µM (active) | 0.917 µM (active) | > 30 µM (inactive) | > 30 µM (inactive) |  | > 30 µM (inactive) | > 30 µM (inactive) | > 30 µM (inactive) | > 30 µM (inactive) | > 30 µM (inactive) | > 30 µM (inactive) | > 30 µM (inactive) | > 30 µM (inactive) |

Now from value to compound:

| Kd [1] | Kd [2] | Kd (Ephrin type-A receptor 4) | Kd [3] | Kd [4] | Kd [5] | Kd [6] | Kd [7] | Kd (DNA topoisomerase 2-beta) | Kd [8] | Kd [9] | Kd [10] | Kd (Septin-9) | Kd [11] | Structure (SMILES) |
| --- | --- | --- | --- | --- | --- | --- | --- | --- | --- | --- | --- | --- | --- | --- |
|  | 0.082 µM (active) | 43.9 µM (active) | 0.358 µM (active) | > 30 µM (inactive) |  | > 30 µM (inactive) | > 30 µM (inactive) | > 30 µM (inactive) | > 30 µM (inactive) | 1.25 µM (active) | 1.15 µM (active) | > 30 µM (inactive) | > 30 µM (inactive) | O=C(Nc1c[nH]nc1-c1nc2cc(CN3CCOCC3)ccc2[nH]1)NC1CC1 [AT-9283] |
| > 30 µM (inactive) | > 30 µM (inactive) | > 30 µM (inactive) | 0.378 µM | > 30 µM (inactive) |  | > 30 µM (inactive) | > 30 µM (inactive) | > 30 µM (inactive) | > 30 µM (inactive) | > 30 µM (inactive) | > 30 µM (inactive) | > 30 µM (inactive) | > 30 µM (inactive) | COc1cc2ncnc(Oc3cccc(NC(=O)Nc4cc(C(C)(C)C(F)(F)F)on4)c3)c2cc1OC [CEP-32496] |
| > 30 µM (inactive) | > 30 µM (inactive) | > 30 µM (inactive) | > 30 µM (inactive) | > 30 µM (inactive) |  | > 30 µM (inactive) | > 30 µM (inactive) | > 30 µM (inactive) | > 30 µM (inactive) | > 30 µM (inactive) | > 30 µM (inactive) | > 30 µM (inactive) | > 30 µM (inactive) | COCC(=O)NC/C=C/c1ccc2ncnc(Nc3ccc(Oc4ccc(C)nc4)c(C)c3)c2c1 [CP-724714] |
| > 30 µM (inactive) | 57.5 µM (active) | > 30 µM (inactive) | > 30 µM (inactive) | > 30 µM (inactive) |  | > 30 µM (inactive) | > 30 µM (inactive) | > 30 µM (inactive) | > 30 µM (inactive) | > 30 µM (inactive) | > 30 µM (inactive) | > 30 µM (inactive) | > 30 µM (inactive) | C#Cc1cccc(Nc2ncnc3cc(OC)c(OCCCCCCC(=O)NO)cc23)c1 [CUDC-101] |
